PubChem BioAssay (NCI)
“And” between values parts separate entries of the source, which are not always exact repeats. Identical values can stand only once.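 Each compound was tested at five concentrations against cells in 96-well plates for 48 hours. At the GI50, growth is halved. TGI: total growth inhibition.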

Experiments:
Test in all cases: NCI anticancer screen, dose series, 48 h
[1] = system: 786-0 renal
[2] = system: A498 renal
[3] = system: A549 NSCLC
[4] = system: ACHN renal
[5] = system: BT-549 breast
[6] = system: CAKI-1 renal
[7] = system: CCRF-CEM leukemia
[8] = system: COLO 205 colon
[9] = system: DMS 273 small cell lung
[10] = system: DU-145 prostate
[11] = system: EKVX NSCLC
[12] = system: HCC-2998 colon
[13] = system: HCT-116 colon
[14] = system: HCT-15 colon
[15] = system: HL-60(TB) leukemia
[16] = system: HOP-18 NSCLC
[17] = system: HOP-62 NSCLC
[18] = system: HOP-92 NSCLC
[19] = system: HS 578T breast
[20] = system: HT29 colon
[21] = system: IGROV1 ovarian
[22] = system: K-562 leukemia
[23] = system: KM12 colon
[24] = system: KM20L2 colon
[25] = system: LOX IMVI melanoma
[26] = system: LXFL 529 NSCLC
[27] = system: M14 melanoma
[28] = system: MALME-3M melanoma
[29] = system: MCF7 breast
[30] = system: MDA-MB-231 breast
[31] = system: MDA-MB-435
[32] = system: MDA-N
[33] = system: MOLT-4 leukemia
[34] = system: NCI-H226 lung
[35] = system: NCI-H23 lung
[36] = system: NCI-H460 lung
[37] = system: NCI-H522 lung
[38] = system: NCI/ADR-RES ovarian
[39] = system: OVCAR-3 ovarian
[40] = system: OVCAR-4 ovarian
[41] = system: OVCAR-5 ovarian
[42] = system: OVCAR-8 ovarian
[43] = system: PC-3 prostate
[44] = system: RPMI-8226 leukemia
[45] = system: RXF 393 renal
[46] = system: RXF-631 renal
[47] = system: SF-268 CNS
[48] = system: SF-295 CNS
[49] = system: SF-539 CNS
[50] = system: SK-MEL-2 melanoma
[51] = system: SK-MEL-28 melanoma
[52] = system: SK-MEL-5 melanoma
[53] = system: SK-OV-3 ovarian
[54] = system: SN12C renal
[55] = system: SNB-19 CNS
[56] = system: SNB-75 CNS
[57] = system: SNB-78 CNS
[58] = system: SR leukemia
[59] = system: SW-620 colon
[60] = system: T-47D breast
[61] = system: TK-10 renal
[62] = system: U251 CNS
[63] = system: UACC-257 melanoma
[64] = system: UACC-62 melanoma
[65] = system: UO-31 renal
[66] = system: XF 498 CNS
[67] = system: DMS 114 small cell lung
[68] = system: M19-MEL melanoma
[69] = system: DLD-1 colon

`NCCCNCCS` was tested, and the GI50 [1] was > 100 µM and 49.5 µM, the TGI [1] was greater than 100 µM and the TGI [2] was greater than 100 µM. For the same compound, the TGI [3] was greater than 100 µM, the TGI [4] was greater than 100 µM and the TGI [5] was greater than 100 µM. For the same compound, the TGI [6] was greater than 100 µM, the GI50 [7] was > 100 µM and 21.8 µM and the TGI [7] was > 100 µM and 72.3 µM. For the same compound, the GI50 [8] was > 100 µM and 46.9 µM, the TGI [8] was greater than 100 µM and the TGI [9] was greater than 100 µM. It also gave a TGI [10] greater than 100 µM, a TGI [11] greater than 100 µM and a TGI [12] greater than 100 µM. For the same compound, the TGI [13] was greater than 100 µM, the TGI [14] was greater than 100 µM and the TGI [15] was greater than 100 µM. It also gave a TGI [16] greater than 100 µM, a TGI [17] greater than 100 µM and a TGI [18] greater than 100 µM. The TGI [19] was greater than 100 µM, the TGI [20] was greater than 100 µM and the TGI [21] was greater than 100 µM. The TGI [22] was greater than 100 µM, the TGI [23] was greater than 100 µM and the TGI [24] was greater than 100 µM. For the same compound, the TGI [25] was greater than 100 µM, the TGI [26] was greater than 100 µM and the TGI [27] was greater than 100 µM. It also gave a TGI [28] greater than 100 µM, a TGI [29] greater than 100 µM and a TGI [30] greater than 100 µM. It also gave a TGI [31] greater than 100 µM, a TGI [32] greater than 100 µM and a TGI [33] greater than 100 µM. The TGI [34] was greater than 100 µM, the TGI [35] was greater than 100 µM and the TGI [36] was greater than 100 µM. For the same compound, the TGI [37] was greater than 100 µM, the TGI [38] was greater than 100 µM and the TGI [39] was greater than 100 µM. It also gave a TGI [40] greater than 100 µM, a TGI [41] greater than 100 µM and a TGI [42] greater than 100 µM. For the same compound, the TGI [43] was greater than 100 µM, the GI50 [44] was > 100 µM and 20.6 µM and the TGI [44] was greater than 100 µM. It also gave a TGI [45] greater than 100 µM, a TGI [46] greater than 100 µM and a TGI [47] greater than 100 µM. The TGI [48] was greater than 100 µM, the TGI [49] was greater than 100 µM and the TGI [50] was greater than 100 µM. It also gave a TGI [51] greater than 100 µM, a TGI [52] greater than 100 µM and a TGI [53] greater than 100 µM. It also gave a TGI [54] greater than 100 µM, a TGI [55] greater than 100 µM and a TGI [56] greater than 100 µM. For the same compound, the TGI [57] was greater than 100 µM, the GI50 [58] was > 100 µM and 37 µM and the TGI [58] was greater than 100 µM. For the same compound, the GI50 [59] was > 100 µM and 46.3 µM, the TGI [59] was greater than 100 µM and the TGI [60] was greater than 100 µM. The TGI [61] was greater than 100 µM, the TGI [62] was greater than 100 µM and the TGI [63] was greater than 100 µM. The TGI [64] was greater than 100 µM, the TGI [65] was greater than 100 µM and the TGI [66] was greater than 100 µM.
`O=C(O)CCC1CCc2cccc(O)c2C1=O` (stereo not drawn) gave a TGI [2] greater than 100 µM, a TGI [4] greater than 100 µM and a TGI [7] greater than 100 µM. For the same compound, the TGI [8] was greater than 100 µM, the TGI [67] was greater than 100 µM and the TGI [9] was greater than 100 µM. It also gave a TGI [14] greater than 100 µM, a TGI [15] greater than 100 µM and a TGI [16] greater than 100 µM. For the same compound, the TGI [18] was greater than 100 µM, the TGI [21] was greater than 100 µM and the TGI [22] was greater than 100 µM. For the same compound, the TGI [24] was greater than 100 µM, the TGI [25] was greater than 100 µM and the TGI [26] was greater than 100 µM. It also gave a TGI [27] greater than 100 µM, a TGI [68] greater than 100 µM and a TGI [33] greater than 100 µM. For the same compound, the TGI [35] was greater than 100 µM, the TGI [36] was greater than 100 µM and the TGI [40] was greater than 100 µM. The TGI [44] was greater than 100 µM, the TGI [45] was greater than 100 µM and the TGI [46] was greater than 100 µM. For the same compound, the TGI [49] was greater than 100 µM, the TGI [51] was greater than 100 µM and the TGI [53] was greater than 100 µM. For the same compound, the TGI [54] was greater than 100 µM, the TGI [55] was greater than 100 µM and the TGI [57] was greater than 100 µM. For the same compound, the TGI [62] was greater than 100 µM, the TGI [64] was greater than 100 µM and the TGI [66] was greater than 100 µM.
`CCCCCCCCCCCC(=O)OCCOCCOCCOCCOCCOC(=O)CCCCCCCCCCC` was tested, and the TGI [1] was greater than 100 µM, the TGI [2] was greater than 100 µM and the TGI [3] was greater than 100 µM. For the same compound, the TGI [4] was greater than 100 µM, the TGI [6] was greater than 100 µM and the TGI [7] was greater than 100 µM. For the same compound, the TGI [8] was greater than 100 µM, the TGI [69] was greater than 100 µM and the TGI [67] was greater than 100 µM. It also gave a TGI [9] greater than 100 µM, a TGI [11] greater than 100 µM and a TGI [12] greater than 100 µM. For the same compound, the TGI [13] was greater than 100 µM, the TGI [14] was greater than 100 µM and the TGI [15] was greater than 100 µM. The TGI [16] was greater than 100 µM, the TGI [17] was greater than 100 µM and the TGI [18] was greater than 100 µM. The TGI [20] was greater than 100 µM, the TGI [21] was greater than 100 µM and the TGI [22] was greater than 100 µM. It also gave a TGI [23] greater than 100 µM, a TGI [24] greater than 100 µM and a TGI [25] greater than 100 µM. The TGI [26] was greater than 100 µM, the TGI [27] was greater than 100 µM and the TGI [68] was greater than 100 µM. It also gave a TGI [28] greater than 100 µM, a TGI [33] greater than 100 µM and a TGI [34] greater than 100 µM. The TGI [35] was greater than 100 µM, the TGI [36] was greater than 100 µM and the TGI [37] was greater than 100 µM. It also gave a TGI [39] greater than 100 µM, a TGI [40] greater than 100 µM and a TGI [41] greater than 100 µM. The TGI [42] was greater than 100 µM, the TGI [44] was greater than 100 µM and the TGI [45] was greater than 100 µM. The TGI [46] was greater than 100 µM, the TGI [47] was greater than 100 µM and the TGI [48] was greater than 100 µM. For the same compound, the TGI [50] was greater than 100 µM, the TGI [51] was greater than 100 µM and the TGI [52] was greater than 100 µM. For the same compound, the TGI [53] was greater than 100 µM, the TGI [54] was greater than 100 µM and the TGI [55] was greater than 100 µM. For the same compound, the TGI [56] was greater than 100 µM, the TGI [57] was greater than 100 µM and the TGI [58] was greater than 100 µM. For the same compound, the TGI [59] was greater than 100 µM, the TGI [61] was greater than 100 µM and the TGI [62] was greater than 100 µM. It also gave a TGI [63] greater than 100 µM, a TGI [64] greater than 100 µM and a TGI [65] greater than 100 µM.
With `O=C1C=C(Nc2ccccc2C(=O)CC(=O)C(=O)Nc2cccc([N+](=O)[O-])c2)c2ccccc2C1=O` the TGI [1] was greater than 100 µM, the TGI [2] was greater than 100 µM and the TGI [3] was greater than 100 µM. It also gave a TGI [4] greater than 100 µM, a TGI [6] greater than 100 µM and a TGI [7] of 87.8 µM. The TGI [8] was greater than 100 µM, the TGI [69] was greater than 100 µM and the TGI [67] was 84.9 µM. It also gave a TGI [9] greater than 100 µM, a TGI [11] greater than 100 µM and a TGI [12] greater than 100 µM. The TGI [13] was greater than 100 µM, the TGI [14] was greater than 100 µM and the TGI [15] was 15.6 µM. For the same compound, the TGI [17] was greater than 100 µM, the TGI [18] was greater than 100 µM and the TGI [20] was greater than 100 µM. The TGI [21] was greater than 100 µM, the TGI [22] was greater than 100 µM and the TGI [23] was greater than 100 µM. The TGI [24] was greater than 100 µM, the TGI [25] was 23.1 µM and the TGI [26] was greater than 100 µM. The TGI [27] was greater than 100 µM, the TGI [68] was 19.3 µM and the TGI [28] was 46.7 µM. It also gave a TGI [33] greater than 100 µM, a TGI [34] greater than 100 µM and a TGI [35] greater than 100 µM. It also gave a TGI [36] greater than 100 µM, a TGI [37] of 70.6 µM and a TGI [39] of 55.2 µM. The TGI [40] was greater than 100 µM, the TGI [41] was greater than 100 µM and the TGI [42] was greater than 100 µM. It also gave a TGI [44] of 53.6 µM, a TGI [45] greater than 100 µM and a TGI [46] greater than 100 µM. The TGI [47] was 88.6 µM, the TGI [49] was greater than 100 µM and the TGI [50] was greater than 100 µM. It also gave a TGI [51] greater than 100 µM, a TGI [52] of 26.3 µM and a TGI [53] greater than 100 µM. For the same compound, the TGI [54] was 81.8 µM, the TGI [55] was greater than 100 µM and the TGI [56] was greater than 100 µM. The TGI [57] was greater than 100 µM, the TGI [59] was 87 µM and the TGI [61] was greater than 100 µM. It also gave a TGI [62] greater than 100 µM, a TGI [63] of 78.5 µM and a TGI [64] of 86.8 µM. The TGI [65] was greater than 100 µM and the TGI [66] was 53.8 µM.
